Tests used:
Mastomys natalensis [1] = assay: Filaricidal activity against Brugia malayi in Mastomys at a dosage of 50 mg/kg x 5 administered intraperitoneally at a day of 91; format: functional; settings: route intraperitoneal
Mastomys natalensis [2] = assay: Filaricidal activity against Brugia malayi in Mastomys at a dosage of 50 mg/kg x 5 administered intraperitoneally at a day of 21; format: functional; settings: route intraperitoneal
Mastomys natalensis [3] = assay: Filaricidal activity against Brugia malayi in Mastomys at a dosage of 50 mg/kg x 5 administered intraperitoneally at a day of 63; format: functional; settings: route intraperitoneal
Mastomys natalensis [4] = assay: Filaricidal activity against Brugia malayi in Mastomys at a dosage of 50 mg/kg x 5 administered intraperitoneally at a day of 42; format: functional; settings: route intraperitoneal
Mastomys natalensis [5] = assay: Filaricidal activity against Dipetalonema viteae in Mastomys at a dosage of 175 mg/kg x 5 administered subcutaneous; format: functional
[6] = Filaricidal activity against Litomosoides carinii in cotton rats at a dosage of 6 mg/kg x 5 administered intraperitoneally at a day of 8; settings: route intraperitoneal
Mastomys natalensis [7] = assay: Filaricidal activity against Dipetalonema viteae in Mastomys at a dosage of 175 mg/kg x 5 administered subcutaneous at a day of 21; format: functional
Mastomys natalensis [8] = assay: Filaricidal activity against Brugia malayi in Mastomys at a dosage of 50 mg/kg x 5 administered intraperitoneally at a day of 8; format: functional; settings: route intraperitoneal
Mastomys natalensis [9] = assay: Filaricidal activity against Dipetalonema viteae in Mastomys at a dosage of 175 mg/kg x 5 administered subcutaneous at a day of 42; format: functional
Rattus norvegicus [10] = assay: Filaricidal activity against Litomosoides carinii in cotton rats at a dosage of 6 mg/kg x 5 administered intraperitoneally; format: functional; settings: route intraperitoneal
Mastomys natalensis [11] = assay: Filaricidal activity against Dipetalonema viteae in Mastomys at a dosage of 175 mg/kg x 5 administered subcutaneous at a day of 8; format: functional
Mastomys natalensis [12] = assay: Filaricidal activity against Brugia malayi in Mastomys at a dosage of 50 mg/kg x 5 administered intraperitoneally; format: functional; settings: route intraperitoneal
Mastomys natalensis [13] = assay: Filaricidal activity against Brugia malayi in Mastomys at a dosage of 200 mg/kg x 5 administered orally; format: functional; settings: route oral
Mastomys natalensis [14] = assay: Filaricidal activity against Dipetalonema viteae in Mastomys at a dosage of 150 mg/kg x 5 administered orally at a day of 21; format: functional; settings: route oral
Sigmodon hispidus [15] = assay: Filaricidal activity against Litomosoides carinii in cotton rats at a dosage of 100 mg/kg x 5 administered orally at a day of 42; settings: route oral
Mastomys natalensis [16] = assay: Filaricidal activity against Brugia malayi in Mastomys at a dosage of 200 mg/kg x 5 administered orally at a day of 91; format: functional; settings: route oral
Sigmodon hispidus [17] = assay: Filaricidal activity against Litomosoides carinii in cotton rats at a dosage of 10 mg/kg x 5 administered intraperitoneally at a day of 42; settings: route intraperitoneal
Rattus norvegicus [18] = assay: Anthelmintic activity against Hymenolepis nana in rats at a dose of 100x1 mg/kg administered perorally; format: functional
Cricetinae gen. sp. [19] = assay: Anthelmintic activity against Ancylostoma ceylanicum (hook worm) in hamsters at a dose of 50x1 mg/kg administered perorally; format: functional, Cricetulus griseus
Mastomys natalensis [20] = assay: Filaricidal activity against Brugia malayi in Mastomys at a dosage of 200 mg/kg x 5 administered orally at a day of 42; settings: route oral
Rattus norvegicus [21] = assay: Filaricidal activity against Litomosoides carinii in cotton rats at a dosage of 10 mg/kg x 5 administered intraperitoneally at a day of 42; format: functional; settings: route intraperitoneal
Cricetinae gen. sp. [22] = assay: Anthelmintic activity against Ancylostoma ceylanicum in hamsters at a dose of 6.25 x1 mg/kg administered perorally; format: functional, Cricetulus griseus
Mastomys natalensis [23] = assay: Filaricidal activity against Dipetalonema viteae in Mastomys at a dosage of 25 mg/kg x 5 administered subcutaneous at a day of 42; format: functional
Mastomys natalensis [24] = assay: Filaricidal activity against Dipetalonema viteae in Mastomys at a dosage of 25 mg/kg x 5 administered subcutaneous; format: functional
Cricetinae gen. sp. [25] = assay: Anthelmintic activity against Ancylostoma ceylanicum in hamsters at a dose of 25x1 mg/kg administered perorally; format: functional, Cricetulus griseus
Mastomys natalensis [26] = assay: Filaricidal activity against Brugia malayi in Mastomys at a dosage of 200 mg/kg x 5 administered orally at a day of 21; format: functional; settings: route oral
Mus musculus [27] = assay: Anthelmintic activity against Syphacia obvelata in mice at a dose of 50x1 mg/kg administered perorally; format: functional
Sigmodon hispidus [28] = assay: Filaricidal activity against Litomosoides carinii in cotton rats at a dosage of 100 mg/kg x 5 administered orally at a day of 21; settings: route oral
Rattus norvegicus [29] = assay: Anthelmintic activity against Hymenolepis nana in rats at a dose of 50x1 mg/kg administered perorally; format: functional
Mus musculus [30] = assay: Anthelmintic activity against Syphacia obvelata in mice at a dose of 100x1 mg/kg administered perorally; format: functional
Cricetinae gen. sp. [31] = assay: Anthelmintic activity against Ancylostoma ceylanicum in hamsters at a dose of 12.5x1 mg/kg administered perorally; format: functional, Cricetulus griseus
Mastomys natalensis [32] = assay: Filaricidal activity against Dipetalonema viteae in Mastomys at a dosage of 25 mg/kg x 5 administered subcutaneous at a day of 8; format: functional
Mastomys natalensis [33] = assay: Filaricidal activity against Brugia malayi in Mastomys at a dosage of 200 mg/kg x 5 administered orally at a day of 8; format: functional; settings: route oral
Sigmodon hispidus [34] = assay: Filaricidal activity against Litomosoides carinii in cotton rats at a dosage of 10 mg/kg x 5 administered intraperitoneally at a day of 21; settings: route intraperitoneal
Mastomys natalensis [35] = assay: Filaricidal activity against Dipetalonema viteae in Mastomys at a dosage of 150 mg/kg x 5 administered orally at a day of 8; format: functional; settings: route oral
Rattus norvegicus [36] = assay: Filaricidal activity against Litomosoides carinii in cotton rats at a dosage of 100 mg/kg x 5 administered orally; format: functional; settings: route oral
Mastomys natalensis [37] = assay: Filaricidal activity against Dipetalonema viteae in Mastomys at a dosage of 25 mg/kg x 5 administered subcutaneous at a day of 21; format: functional
Mastomys natalensis [38] = assay: Filaricidal activity against Dipetalonema viteae in Mastomys at a dosage of 150 mg/kg x 5 administered orally at a day of 42; format: functional; settings: route oral
Mus musculus [39] = assay: Anthelmintic activity against Syphacia obvelata in mice at a dose of 25x1 mg/kg administered perorally; format: functional
Sigmodon hispidus [40] = assay: Filaricidal activity against Litomosoides carinii in cotton rats at a dosage of 100 mg/kg x 5 administered orally at a day of 8; settings: route oral
Mastomys natalensis [41] = assay: Filaricidal activity against Brugia malayi in Mastomys at a dosage of 200 mg/kg x 5 administered orally at a day of 63; format: functional; settings: route oral
Mastomys natalensis [42] = assay: Filaricidal activity against Dipetalonema viteae in Mastomys at a dosage of 150 mg/kg x 5 administered orally; format: functional; settings: route oral
Sigmodon hispidus [43] = assay: Filaricidal activity against Litomosoides carinii in cotton rats at a dosage of 10 mg/kg x 5 administered intraperitoneally at a day of 8; settings: route intraperitoneal
Rattus norvegicus [44] = assay: Anthelmintic activity against Hymenolepis nana in rats at a dose of 250x1 mg/kg administered perorally; format: functional
Cricetinae gen. sp. [45] = assay: Anthelmintic activity against Ancylostoma ceylanicum in hamsters at a dose of 50x1 mg/kg administered perorally; format: functional, Cricetulus griseus

CCN(CC)C(=O)N1CCN(C)CC1 [DIETHYLCARBAMAZINE]
Removal of microfilariae (Mastomys natalensis [1]): 91.6% | Removal of microfilariae (Mastomys natalensis [2]): 88.6% | Removal of microfilariae (Mastomys natalensis [3]): 71.6% | Removal of microfilariae (Mastomys natalensis [4]): 90.7% | Death (Mastomys natalensis [5]): 0% | Removal of microfilariae [6]: 97.1% | Removal of microfilariae (Mastomys natalensis [7]): 94.1% | Removal of microfilariae (Mastomys natalensis [8]): 95.9% | Removal of microfilariae (Mastomys natalensis [9]): 51.6% | Death (Rattus norvegicus [10]): 0% | Removal of microfilariae (Mastomys natalensis [11]): 99.6% | Death (Mastomys natalensis [12]): 57.8%

COC(=O)Nc1nc2cc(C(=O)c3ccc4[nH]c(NC(=O)OC)nc4c3)ccc2[nH]1
Death (Mastomys natalensis [13]): 97% | Removal of microfilariae (Mastomys natalensis [14]): 0% | Removal of microfilariae (Sigmodon hispidus [15]): 100% | Removal of microfilariae (Mastomys natalensis [16]): 94% | Removal of microfilariae (Sigmodon hispidus [17]): 100% | Animals cured (Rattus norvegicus [18]): 50% | Worm reduction (Cricetinae gen. sp. [19]): 100% | Removal of microfilariae (Mastomys natalensis [20]): 30% | Removal of microfilariae (Mastomys natalensis [1]): 93% | Death (Rattus norvegicus [21]): 100% | Removal of microfilariae (Mastomys natalensis [2]): 60.1% | Animals cured (Cricetinae gen. sp. [22]): 0% | Worm reduction (Cricetinae gen. sp. [22]): 0% | Removal of microfilariae (Mastomys natalensis [23]): 100% | Death (Mastomys natalensis [24]): 100% | Animals cured (Cricetinae gen. sp. [25]): 50% | Worm reduction (Cricetinae gen. sp. [25]): 60% | Removal of microfilariae (Mastomys natalensis [3]): 89.4% | Removal of microfilariae (Mastomys natalensis [26]): 0% | Animals cured (Mus musculus [27]): 66.6% | Removal of microfilariae (Sigmodon hispidus [28]): 80.9% | Removal of microfilariae (Mastomys natalensis [4]): 89% | Animals cured (Rattus norvegicus [29]): 16.6% | Animals cured (Mus musculus [30]): 100% | Animals cured (Cricetinae gen. sp. [31]): 0% | Worm reduction (Cricetinae gen. sp. [31]): 40.4% | Removal of microfilariae (Mastomys natalensis [32]): 0% | Removal of microfilariae (Mastomys natalensis [33]): 0% | Removal of microfilariae (Sigmodon hispidus [34]): 100% | Removal of microfilariae (Mastomys natalensis [35]): 0% | Death (Rattus norvegicus [36]): 100% | Removal of microfilariae (Mastomys natalensis [37]): 58.8% | Removal of microfilariae (Mastomys natalensis [38]): 100% | Animals cured (Mus musculus [39]): 0% | Removal of microfilariae (Sigmodon hispidus [40]): 72% | Removal of microfilariae (Mastomys natalensis [41]): 63.9% | Death (Mastomys natalensis [42]): 100% | Removal of microfilariae (Mastomys natalensis [8]): 0% | Removal of microfilariae (Sigmodon hispidus [43]): 65.6% | Animals cured (Rattus norvegicus [44]): 100% | Animals cured (Cricetinae gen. sp. [45]): 100% | Death (Mastomys natalensis [12]): 99%
